Data taken from patent US9326539B2, “Compositions comprising dietary fat complexers and methods for their use” (Soho Flordis International Pty. Ltd., priority 2002, dated 2016).

Assay: in vitro study of vegetable oil, water and cyclodextrin: band of wax-like complex
Type: physicochemical
Settings: vegetable oil 4 g, water 6 g, varying amounts of cyclodextrin (100-2,000 mg), centrifuged
Procedure: FIG. 9A-9C depicts the results of an in vitro study of vegetable oil (4 g), water (6 g) (with added food coloring for contrast) and varying amounts of (A) α-cyclodextrin (100-2,000 mg, right to left), (B) β-cyclodextrin or (C) γ-cyclodextrin. A band of “wax-like” material layered between the oil and aqueous phases is apparent in the tubes. […] Note the increasing size (right to left) of a white layer of un-reacted α-cyclodextrin in the bottom of the tubes. This material is displaced from solution by either the oil or the α-cyclodextrin-oil complex. These tubes were centrifuged in order to improve the definition of the layers. The “wax-like” complex is of such a consistency that all of the tubes except for the furthest two to the right can be inverted without leakage of the aqueous phase around the complex.
FIGS. 9A-9C depict the results of an in vitro study of vegetable oil (4 g), water (6 g) (with added food coloring for contrast) and varying amounts of (A) α-cyclodextrin (100-2,000 mg, right to left), (B) β-cyclodextrin or (C) γ-cyclodextrin. A band of “wax-like” material layered between the oil and aqueous phases is apparent in the tubes. […] Note the increasing size (right to left) of a white layer of un-reacted α-cyclodextrin in the bottom of the tubes. This material is displaced from solution by either the oil or the α-cyclodextrin-oil complex. These tubes were centrifuged in order to improve the definition of the layers. The “wax-like” complex is of such a consistency that all of the tubes in 9A except for the furthest two to the right can be inverted without leakage of the aqueous phase around the complex.
Thus one would not have expected α-cyclodextrin to complex triglyceride molecules because the molecules would not fit within the pore of the α α-cyclodextrin. […] The white substance in the bottom of the tubes is precipitated cyclodextrin.

OC[C@H]1O[C@@H]2O[C@H]3[C@H](O)[C@@H](O)[C@@H](O[C@H]4[C@H](O)[C@@H](O)[C@@H](O[C@H]5[C@H](O)[C@@H](O)[C@@H](O[C@H]6[C@H](O)[C@@H](O)[C@@H](O[C@H]7[C@H](O)[C@@H](O)[C@@H](O[C@H]8[C@H](O)[C@@H](O)[C@@H](O[C@H]1[C@H](O)[C@H]2O)O[C@@H]8CO)O[C@@H]7CO)O[C@@H]6CO)O[C@@H]5CO)O[C@@H]4CO)O[C@@H]3CO [β-cyclodextrin]
band of wax-like material (complexed fat) between oil and aqueous phases: significantly less

OC[C@H]1O[C@@H]2O[C@H]3[C@H](O)[C@@H](O)[C@@H](O[C@H]4[C@H](O)[C@@H](O)[C@@H](O[C@H]5[C@H](O)[C@@H](O)[C@@H](O[C@H]6[C@H](O)[C@@H](O)[C@@H](O[C@H]7[C@H](O)[C@@H](O)[C@@H](O[C@H]8[C@H](O)[C@@H](O)[C@@H](O[C@H]9[C@H](O)[C@@H](O)[C@@H](O[C@H]1[C@H](O)[C@H]2O)O[C@@H]9CO)O[C@@H]8CO)O[C@@H]7CO)O[C@@H]6CO)O[C@@H]5CO)O[C@@H]4CO)O[C@@H]3CO [γ-cyclodextrin]
band of wax-like material (complexed fat) between oil and aqueous phases: bearly noticeable
